Test results published in the supplement of paper PMC11061612.

Columns and labels:
[1] = tested on: CAL-120 (Breast Carcinoma); experiment: Bliss excess, mean over the matrix (fraction); higher = more synergy
In short: (§1)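 Cell lines grown in DMEM/F12 or RPMI with 10% FBS were plated in 1536-well plates and held 24 hours at 37°C, 5% CO2 before 72 hours of exposure to two-drug dose matrices, with DMSO typically at 0.2%. CellTiter-Glo 2.0 luminescence gave viability, which was converted to inhibition. Vehicle wells were set to 0 and blank wells to 1. Combination Emax is the second-highest inhibition in the matrix, and Bliss excess is the observed combination effect minus the expected EA + EB − EA·EB, where EA and EB are the single-agent effects.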

[2] = tested on: OPM-2 (Plasma Cell Myeloma); experiment: as above
In short: as §1

[3] = tested on: VAL (B-Cell Non-Hodgkin's Lymphoma); experiment: as above
In short: as §1

[4] = tested on: COLO-680N (Esophageal Squamous Cell Carcinoma); experiment: combination Emax (second highest fraction inhibited in the dose matrix, 72 h); higher = more inhibition; extreme values may be limits of the assay
In short: as §1

WM278 (Melanoma) = experiment: as above
In short: as §1

[5] = tested on: CAL-120 (Breast Carcinoma); experiment: as above
In short: as §1

[6] = tested on: 23132-87 (Gastric Carcinoma); experiment: as above
In short: as §1

[7] = tested on: NCI-H2342 (Lung Adenocarcinoma); experiment: as above
In short: as §1

SF539 (Glioblastoma) = experiment: as above
In short: as §1

[8] = tested on: RERF-LC-Sq1 (Squamous Cell Lung Carcinoma); experiment: as above
In short: as §1

[9] = tested on: PANC-03-27 (Pancreatic Carcinoma); experiment: as above
In short: as §1

[10] = tested on: LK-2 (Squamous Cell Lung Carcinoma); experiment: as above
In short: as §1

[11] = tested on: REH (B-Lymphoblastic Leukemia); experiment: as above
In short: as §1

IST-MES1 (Mesothelioma) = experiment: as above
In short: as §1

[12] = tested on: SK-PN-DW (Other Solid Carcinomas); experiment: as above
In short: as §1

LN-229 (Glioblastoma) = experiment: as above
In short: as §1

[13] = tested on: HEC-1 (Endometrial Carcinoma); experiment: as above
In short: as §1

SF268 (Low Grade Glioma) = experiment: as above
In short: as §1

[14] = tested on: KE-37 (T-Lymphoblastic Leukemia); experiment: as above
In short: as §1

[15] = tested on: MFE-280 (Endometrial Carcinoma); experiment: as above
In short: as §1
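For Bliss excess, mean over the matrix in this document: after 72 h of two-drug dosing.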

SMILES	Bliss excess [1]	Bliss excess [2]	Bliss excess [3]	combination Emax [4]	combination Emax (WM278 (Melanoma))	combination Emax [5]	combination Emax [6]	combination Emax [7]	combination Emax (SF539 (Glioblastoma))	combination Emax [8]	combination Emax [9]	combination Emax [10]	combination Emax [11]	combination Emax (IST-MES1 (Mesothelioma))	combination Emax [12]	combination Emax (LN-229 (Glioblastoma))	combination Emax [13]	combination Emax (SF268 (Low Grade Glioma))	combination Emax [14]	combination Emax [15]
Cc1c2c(nn1C)CSCc1cc(n(C)n1)CSc1cc(c3ccccc3c1)OCCCc1c(C(=O)O)n(C)c3c-2c(Cl)ccc13 [AZD5991] + Cc1cc2ncnn2cc1Nc1ncc2c(n1)n(C1CCOCC1)c(=O)n2C [AZD7648] (first compound max 1 µM, 7x7, partner max 10 µM)	-0.0059	-0.0357	-0.0356	0.19	0.285	0.252	0.887	0.317	0.41	0.37	0.261	0.198	0.8	0.249	0.881	0.389	0.18	0.243	0.975	0.437
Cc1c2c(nn1C)CSCc1cc(n(C)n1)CSc1cc(c3ccccc3c1)OCCCc1c(C(=O)O)n(C)c3c-2c(Cl)ccc13 [AZD5991] + C[C@@H](Nc1cc(F)cc(F)c1)c1cc(C(=O)N(C)C)cc2c(=O)cc(N3CCOCC3)oc12 [AZD8186] (first compound max 1 µM, 7x7, partner max 3 µM)	-0.0318	-0.0104	0.0426	0.215	0.365	0.218	0.867	0.294	0.438	0.228	0.354	0.196	0.776	0.241	0.911	0.546	0.14	0.3	0.919	0.465
COc1nnc2ccc(N3CCC(c4ccc(OCCN5CCN(C)C(=O)[C@H]5C)cc4)CC3)nn12 [AZD5153] + CCN(CCO)CCCOc1ccc2c(Nc3cc(CC(=O)Nc4cccc(F)c4)[nH]n3)ncnc2c1 [AZD2811] (first compound max 1 µM, 7x7, partner max 1 µM)	0.0045	0.0194	-0.0945	0.357	0.466	0.441	0.173	0.433	0.699	0.555	0.179	0.625	0.903	0.653	0.726	0.411	0.607	0.609	1	0.348
CN(CCO)CC[C@H](CSc1ccccc1)Nc1ccc(S(=O)(=O)NC(=O)c2ccc(N3CCC([C@@H](O)c4ccccc4-c4ccc(Cl)cc4)CC3)cc2)cc1S(=O)(=O)C(F)(F)F [AZD4320] + C=CCn1c(=O)c2cnc(Nc3ccc(N4CCN(C)CC4)cc3)nc2n1-c1cccc(C(C)(C)O)n1 [AZD1775] (first compound max 1 µM, partner max 1 µM)	0.0158	0.0457	-0.0211	0.223	0.765	0.854	0.846	0.38	0.978	0.683	0.985	0.992	1	0.461	0.898	0.428	0.456	0.587	1	0.953
Cc1c2c(nn1C)CSCc1cc(n(C)n1)CSc1cc(c3ccccc3c1)OCCCc1c(C(=O)O)n(C)c3c-2c(Cl)ccc13 [AZD5991] + CN(C)CCCOc1ccc(-c2ccc3ncc4c(c3c2)n(C2CCOCC2)c(=O)n4C)cn1 [AZD0156] (first compound max 1 µM, 7x7, partner max 1 µM)	-0.036	-0.0241	-0.0034	0.219	0.248	0.171	0.934	0.278	0.302	0.364	0.254	0.183	0.694	0.191	0.835	0.483	0.195	0.3	0.939	0.38
Cc1c2c(nn1C)CSCc1cc(n(C)n1)CSc1cc(c3ccccc3c1)OCCCc1c(C(=O)O)n(C)c3c-2c(Cl)ccc13 [AZD5991] + C1CN(CCC1(C(=O)N[C@@H](CCO)C2=CC=C(C=C2)Cl)N)C3=NC=NC4=C3C=CN4 [Capivasertib] (first compound max 1 µM, 7x7, partner max 3 µM)	0.0424	-0.0121	-0.0223	0.139	0.266	0.256	0.934	0.298	0.573	0.757	0.167	0.121	0.849	0.138	0.95	0.42	0.0757	0.216	1	0.461
CN(CCO)CC[C@H](CSc1ccccc1)Nc1ccc(S(=O)(=O)NC(=O)c2ccc(N3CCC([C@@H](O)c4ccccc4-c4ccc(Cl)cc4)CC3)cc2)cc1S(=O)(=O)C(F)(F)F [AZD4320] + Cn1cnc2c(F)c(Nc3ccc(Br)cc3Cl)c(C(=O)NOCCO)cc21 [Selumetinib] (first compound max 1 µM, 7x7, partner max 3 µM)	0.0577	0.0683	0.0113	0.246	0.918	0.8	0.615	0.423	0.346	0.49	0.793	0.699	0.992	0.257	0.684	0.397	0.366	0.69	1	0.705
CS(=O)(=O)CCNCc1ccc(-c2ccc3ncnc(Nc4ccc(OCc5cccc(F)c5)c(Cl)c4)c3c2)o1 [Lapatinib] + NC1(c2ccc(-c3nc4ccn5c(=O)[nH]nc5c4cc3-c3ccccc3)cc2)CCC1 [MK-2206] (first compound max 10 µM, 7x7, partner max 10 µM)		0.0183	-0.0147	0.467				0.196	0.953		0.76	0.892	0.957	0.638	0.933	0.207				0.911
CN(CCO)CC[C@H](CSc1ccccc1)Nc1ccc(S(=O)(=O)NC(=O)c2ccc(N3CCC([C@@H](O)c4ccccc4-c4ccc(Cl)cc4)CC3)cc2)cc1S(=O)(=O)C(F)(F)F [AZD4320] + C1CN(CCC1(C(=O)N[C@@H](CCO)C2=CC=C(C=C2)Cl)N)C3=NC=NC4=C3C=CN4 [Capivasertib] (first compound max 1 µM, 7x7, partner max 3 µM)	-0.0649	-0.0088	0.0595	0.0496	0.599		0.221	0.3	0.461	0.667	0.25	0.655	1	0.0905	0.482	0	0.295	0.211	1	0.88
C[C@@H](c1ccc2nccn2c1)n1nnc2ncc(-c3cnn(C)c3)nc21 [Savolitinib] + CN(CC[C@H](CSC1=CC=CC=C1)NC2=C(C=C(C=C2)S(=O)(=O)NC(=O)C3=CC=C(C=C3)N4CCC(CC4)[C@H](C5=CC=CC=C5C6=CC=C(C=C6)Cl)O)S(=O)(=O)C(F)(F)F)CCO [AZD4320] (first compound max 1 µM, 7x7, partner max 1 µM)	-0.0325				0.55	0.65	0.338			0.238						0.187	0.423	0.172	1	
CCc1c2c(nc3ccc(O)cc13)-c1cc3c(c(=O)n1C2)COC(=O)[C@]3(O)CC [SN-38] + O=C(c1cc(Cc2n[nH]c(=O)c3ccccc23)ccc1F)N1CCN(C(=O)C2CC2)CC1 [Olaparib] (first compound max 0.3 µM, 7x7, partner max 10 µM)	0.0417	0.0082	0.036	0.386	0.627	0.7	0.814	0.236	0.99	0.672	0.839	0.456	1	0.63	0.909		0.761		1	0.785
Cc1nc(Nc2ncc(C(=O)Nc3c(C)cccc3Cl)s2)cc(N2CCN(CCO)CC2)n1 [Dasatinib] + CC(=O)Nc1cccc(-n2c(=O)n(C3CC3)c(=O)c3c(Nc4ccc(I)cc4F)n(C)c(=O)c(C)c32)c1 [Trametinib] (first compound max 2 µM, 7x7, partner max 1 µM)	0.032	0.0108	-0.0543	0.554	0.808	0.525	0.315	0.232	0.602	0.562	0.713	0.63	0.089	0.924	0.141	0.548	0.295		0.32	0.486
COc1nnc2ccc(N3CCC(c4ccc(OCCN5CCN(C)C(=O)[C@H]5C)cc4)CC3)nn12 [AZD5153] + CN(CC[C@H](CSC1=CC=CC=C1)NC2=C(C=C(C=C2)S(=O)(=O)NC(=O)C3=CC=C(C=C3)N4CCC(CC4)[C@H](C5=CC=CC=C5C6=CC=C(C=C6)Cl)O)S(=O)(=O)C(F)(F)F)CCO [AZD4320] (first compound max 1 µM, 7x7, partner max 1 µM)	0.0415				0.829	0.919	0.349			0.706						0.335	0.983	0.552	1	
